Measurements reported in patent US20260285830A1, “CRYSTALLINE METHIONINE ADENOSYLTRANSFERASE 2a (MAT2A) INHIBITOR AND USES THEREOF” (Insilico Medicine IP Limited, priority 2023, published 2026).
Structures can show the parent of a compound that is named as a salt. Blank lines part the entries; values can stand above or below the molecule they belong to.

How the values were obtained:
[1] = Stability of 1 mg capsules (total impurity); format: physicochemical; conditions: 1 mg capsules in aluminum blister foils
Method: Compound 1 freebase Type A or Compound 1 maleate salt Type A was sieved with 40 mesh sieves, followed by mixing with the same amount of diluent, disintegrant and lubricant to prepare 1000 capsules. The strength of these capsules is 1 mg, and the capsules are packaged in aluminum blister foils. The stability of 1 mg capsules was investigated at 40° C./75% RH and 60° C., and the results were in Table 26.

[2] = Kinetic solubility evaluation; format: physicochemical; conditions: H2O, SGF and FaSSIF, 37 °C, solid loading ~10 mg/mL (calculated as freebase)
Method: Kinetic solubility of Compound 1 Freebase Type A, Compound 1 maleate salt Type A, and Compound 1 citrate salt Type A were measured in water, SGF (Simulated Gastric Fluid), FaSSIF (Fasted State Simulated Intestinal Fluid) and FeSSIF (Fed State Simulated Intestinal Fluid) at 37 ? with solid loading of ~10 mg/mL (calculated as freebase). The results are presented in FIG. 59A, FIG. 59B, FIG. 59C, and FIG. 59D.

[3] = Hygroscopicity evaluation (DVS); format: physicochemical; conditions: for hygroscopicity (in words): DVS at 25 °C, water uptake up to 80% RH; for water uptake up to 80% RH: DVS isotherm at 25 °C between 0% RH and 95% RH
Method: Compound 1 Freebase Type A/B/C, Compound 1 maleate salt Type A, and Compound 1 citrate salt Type A were evaluated for hygroscopicity. DVS isotherm plots were collected at 25 ? between 0% RH and 95% RH.

HCT116 MTAP+/+ = test: Inhibition of cellular proliferation (Cell Titer Glo), HCT116 WT (MTAP+/+); format: cell-based; conditions: Homo sapiens, HCT-116, 120 h, 5 days treatment
Method: (§1) Test compound impact on cancer cell growth was assessed by treating cancer cells with compound for 5 days and then measuring proliferation using an ATP-based cell proliferation readout (Cell Titer Glo, Promega Corporation).
(§2) In a typical assay an isogenic pair of HCT116 human colon carcinoma cell lines which vary only in MTAP deletion status (HCT116 MTAP+/+ and HCT116 MTAP−/−) were plated in 96-well dishes at appropriate cell density. Following 24 hours, cells were then treated with the candidate MAT2A inhibitor. Prior to addition to cells, the compound was first serially diluted in DMSO, typically as a 3-fold serial dilution with 9 dose points.
(§3) Compound was then transferred to a working stock plate in cell culture media by adding 3 μl of compound in DMSO to 297 μl of cell culture media. […]
(§4) To measure inhibition of cellular proliferation, cells were allowed to equilibrate to room temperature for 30 minutes, and were then treated with 40 μl of Cell Titer Glo reagent. […] Luminescent signal of the Cell Titer Glo reagent was then measured using a plate-based luminometer and normalized via an ATP standard curve. This luminescence measure was converted to a proliferation index by subtracting from each datapoint the ATP luminescence measured from a control cell plate that was measured at the time of compound treatment. […]

[4] = Pharmacokinetics in male Sprague Dawley rats, intravenous injection; format: in vivo; conditions: rat, plasma, 1 mg/kg; male SD rats, n=3, intravenous injection, 0.2 mg/mL, 5 mL/kg
Method: Test compounds was dissolved in 5% DMSO+95% (10% HP-β-CD in Saline) to a concentration of 0.2 mg/mL and given to SD rats (Male, n=3) by intravenous injection (5 mL/kg). Blood samples were collected at 0.083 h, 0.25, 0.5, 1, 2, 4, 8, and 24 h after injection (anticoagulant:K2-EDTA). These tubes were kept in an ice bath prior to centrifugation at approximately 6800 g for 6 minutes at approximately 5° C. Samples were analyzed for the presence of the test compound with an TQ5500 mass spectrometer (AB Sciex) coupled to an ACQUITY UPLC BEH C18 (1.7 μm, 2.1 mm×50 mm) HPLC column. Gradient elution was applied consisting of ultrapure water containing 0.1% formic acid and acetonitrile containing 0.1% formic acid. Standard set of parameters including Area Under the Curve (AUC (0-t) and […]), elimination half-live (T1/2), maximum plasma concentration (Cmax), time to reach maximum plasma concentration (Tmax) will be calculated using non-compartmental analysis modules in Phoenix WinNonlin 7.0 (Pharsight, USA).

HCT116 MTAP−/− = test: Inhibition of cellular proliferation (Cell Titer Glo), HCT116 MTAP-/-; format: cell-based; conditions: Homo sapiens, HCT-116, 120 h, 5 days treatment
Method: as §1, §2, §3, §4

Total impurity ([1]; 40° C./75% RH, 0 d, listed as Maleate Type A): 0.10%
Total impurity ([1]; 40° C./75% RH, 10 d, listed as Maleate Type A): 2.0%
Total impurity ([1]; 60° C., 0 d, listed as Maleate Type A): 0.10%
Total impurity ([1]; 60° C., 5 d, listed as Maleate Type A): 12.6%
kinetic solubility compared with Compound 1 Freebase Type A [2]: improved solubility
kinetic solubility compared with Compound 1 citrate salt Type A [2]: higher solubility
hygroscopicity (in words) [3]: non-hygroscopic
water uptake up to 80% RH [3]: ~ 0.07%
Compound: C#CCNc1nc(=O)n(-c2cccnc2C)c2cc(C(F)(F)F)cc(OC)c12 [Compound 1 maleate salt Type A, 5-methoxy-1-(2-methylpyridin-3-yl)-4-(prop-2-yn-1-ylamino)-7-(trifluoromethyl) quinazolin-2 (1H)-one]

water uptake up to 80% RH [3]: ~ 11.6%
Compound: C#CCNc1nc(=O)n(-c2cccnc2C)c2cc(C(F)(F)F)cc(OC)c12 [Compound 1 Freebase Type B, 5-methoxy-1-(2-methylpyridin-3-yl)-4-(prop-2-yn-1-ylamino)-7-(trifluoromethyl) quinazolin-2 (1H)-one]

Total impurity ([1]; 40° C./75% RH, 0 d, listed as Free form Type A): 0.21%
Total impurity ([1]; 40° C./75% RH, 10 d, listed as Free form Type A): 0.95%
Total impurity ([1]; 60° C., 0 d, listed as Free form Type A): 0.21%
Total impurity ([1]; 60° C., 5 d, listed as Free form Type A): 4.4%
Total impurity ([1]; 60° C., 10 d): 8.04%
IC50 (HCT116 MTAP+/+): 21 µM
clearance [4]: 0.17 mL/min/kg
IC50 (HCT116 MTAP−/−): 0.198 µM
hygroscopicity (in words) [3]: slightly hygroscopic
water uptake up to 80% RH [3]: ~ 0.3%
Compound: C#CCNc1nc(=O)n(-c2cccnc2C)c2cc(C(F)(F)F)cc(OC)c12 [Compound 1 Freebase Type A, 5-methoxy-1-(2-methylpyridin-3-yl)-4-(prop-2-yn-1-ylamino)-7-(trifluoromethyl) quinazolin-2 (1H)-one]

Second part, the molecule before the results:

Compound: C#CCNc1nc(=O)n(-c2cccnc2C)c2cc(C(F)(F)F)cc(OC)c12 [Compound 1 Freebase Type C, 5-methoxy-1-(2-methylpyridin-3-yl)-4-(prop-2-yn-1-ylamino)-7-(trifluoromethyl) quinazolin-2 (1H)-one]
water uptake up to 80% RH [3]: ~ 6.7%

Compound: C#CCNc1nc(=O)n(-c2cccnc2C)c2cc(C(F)(F)F)cc(OC)c12 [Compound 1 citrate salt Type A, 5-methoxy-1-(2-methylpyridin-3-yl)-4-(prop-2-yn-1-ylamino)-7-(trifluoromethyl) quinazolin-2 (1H)-one]
kinetic solubility compared with Compound 1 Freebase Type A [2]: improved solubility
hygroscopicity (in words) [3]: slightly hygroscopic
water uptake up to 80% RH [3]: 1.6%
